From ChEMBL document CHEMBL1201862, “PubChem BioAssay data set” (2004)
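Each compound was tested at five concentrations against cells in 96-well plates for 48 hours. GI50: concentration for 50% inhibition of growth.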 Calls of active or inactive are those of the source. No stated cut-off is given here; in the data, active = GI50 up to about 1.1 µM and inactive = higher.

What was measured:
Assay in all cases: DTP human tumour cell line panel, 48 h
UACC-62 = test system: UACC-62
SNB-19 = test system: SNB-19
KM12 = test system: KM12
K562 = test system: K562
CAKI-1 = test system: CAKI-1
SK-MEL-28 = test system: SK-MEL-28
UACC-257 = test system: UACC-257
HCT-15 = test system: HCT-15
RPMI-8226 = test system: RPMI-8226
Malme-3M = test system: Malme-3M
EKVX = test system: EKVX
SK-OV-3 = test system: SK-OV-3
NCI-H226 = test system: NCI-H226
NCI-H23 = test system: NCI-H23
IGROV-1 = test system: IGROV-1
OVCAR-4 = test system: OVCAR-4
NCI-H460 = test system: NCI-H460
HCC 2998 = test system: HCC 2998
HOP-62 = test system: HOP-62

SMILES	GI50 (UACC-62)	GI50 (SNB-19)	GI50 (KM12)	GI50 (K562)	GI50 (CAKI-1)	GI50 (SK-MEL-28)	GI50 (UACC-257)	GI50 (HCT-15)	GI50 (RPMI-8226)	GI50 (Malme-3M)	GI50 (EKVX)	GI50 (SK-OV-3)	GI50 (NCI-H226)	GI50 (NCI-H23)	GI50 (IGROV-1)	GI50 (OVCAR-4)	GI50 (NCI-H460)	GI50 (HCC 2998)	GI50 (HOP-62)
O=C(/C=C/c1ccccc1F)C(c1ccccc1)c1ccccc1	2.08 µM (inactive)	2.14 µM (inactive)	3.95 µM (inactive)	3.7 µM (inactive)	5.36 µM (inactive)	2.72 µM (inactive)	4.82 µM (inactive)	4.31 µM	3.53 µM (inactive)	10.8 µM (inactive)	11.2 µM (inactive)	2.01 µM (inactive)	11.4 µM (inactive)	4.22 µM (inactive)	10.8 µM (inactive)				
Cc1c2[nH]c3ccc(Br)cc3c2c(C)c2nccc(O)c12		14.5 µM (inactive)	12.4 µM (inactive)	17 µM (inactive)	13.8 µM (inactive)	16.9 µM (inactive)	16.4 µM (inactive)	15.1 µM	14.3 µM (inactive)	13 µM (inactive)	16.4 µM (inactive)		16.6 µM (inactive)	16 µM (inactive)		16.3 µM (inactive)	6.9 µM (inactive)	16.2 µM (inactive)	13.1 µM (inactive)
COc1ccccc1N1C(Cl)C(=O)C1c1c[nH]c2ccccc12 (configuration not stated)	> 100 µM (inactive)	26.7 µM (inactive)	> 100 µM (inactive)	> 100 µM (inactive)		> 100 µM (inactive)	> 100 µM (inactive)		> 100 µM (inactive)		> 100 µM (inactive)	> 100 µM (inactive)		> 100 µM (inactive)	> 100 µM (inactive)	> 100 µM (inactive)	> 100 µM (inactive)		> 100 µM (inactive)
Cn1c(=O)nc2n(-c3ccc(Cl)cc3Cl)c3ccccc3nc-2c1=O	2.04 µM (inactive)	13.7 µM (inactive)	3.96 µM (inactive)	3.92 µM (inactive)	3.08 µM (inactive)	11.4 µM (inactive)		3.05 µM	15.4 µM (inactive)	1.24 µM (inactive)	5.27 µM (inactive)	30.8 µM (inactive)		3.27 µM (inactive)	12.8 µM (inactive)	3.51 µM (inactive)		3.05 µM (inactive)	11.7 µM (inactive)
O=C(c1ccccc1)[C@@H]1C[C@H](Sc2ccccc2)c2cc(Cl)ccc2N1	19.5 µM (inactive)	43.3 µM (inactive)	57.5 µM (inactive)	18.9 µM (inactive)	42.2 µM (inactive)	17.9 µM (inactive)	17.1 µM (inactive)	25.4 µM	23.7 µM (inactive)	32.4 µM (inactive)	10 µM (inactive)		25.6 µM (inactive)	20.2 µM (inactive)	32.3 µM (inactive)	37.5 µM (inactive)	26.5 µM (inactive)	20.5 µM (inactive)	51.6 µM (inactive)
O=C(Nc1ccc([N+](=O)[O-])cc1[N+](=O)[O-])C(=O)C(C(=O)c1ccc2ccccc2c1)C1OC(=O)c2ccccc21 (configuration not stated)	16.6 µM (inactive)	11.5 µM (inactive)	22.4 µM (inactive)	14 µM (inactive)	21.7 µM (inactive)	20 µM (inactive)	24.4 µM (inactive)	15.9 µM	9.44 µM (inactive)		15.5 µM (inactive)	13.5 µM (inactive)	2.69 µM (inactive)	7.29 µM (inactive)	19.8 µM (inactive)	12.8 µM (inactive)	13.2 µM (inactive)	12.4 µM (inactive)	22.4 µM (inactive)
O=C(CCC(=O)Nc1ccc(Cl)c(Cl)c1)CC(=O)c1ccc(Br)cc1	36.2 µM (inactive)	> 100 µM (inactive)	> 100 µM (inactive)	47.8 µM (inactive)	> 100 µM (inactive)	> 100 µM (inactive)	49.4 µM (inactive)	40.5 µM	> 100 µM (inactive)	> 100 µM (inactive)	> 100 µM (inactive)	> 100 µM (inactive)	> 100 µM (inactive)	> 100 µM (inactive)	> 100 µM (inactive)	> 100 µM (inactive)			
CC(C)C1CN(C(=O)OCc2ccccc2)C2N1C(=O)C2(C)OCc1ccccc1 (configuration not stated)	25.1 µM (inactive)	46.7 µM (inactive)		34.8 µM (inactive)		> 100 µM (inactive)	28.2 µM (inactive)	44.8 µM	21.4 µM (inactive)	31.8 µM (inactive)	34 µM (inactive)		22 µM (inactive)	24.5 µM (inactive)	35.9 µM (inactive)	41.9 µM (inactive)	21.6 µM (inactive)	36.4 µM (inactive)	94.4 µM (inactive)
C=C(CCCO)[C@@H]1CC[C@@](C)(O)[C@H]1C	> 100 µM (inactive)	> 100 µM (inactive)	> 100 µM (inactive)	> 100 µM (inactive)	> 100 µM (inactive)	> 100 µM (inactive)	> 100 µM (inactive)	> 100 µM	> 100 µM (inactive)	> 100 µM (inactive)	> 100 µM (inactive)	0.885 µM (active)	> 100 µM (inactive)	> 100 µM (inactive)	> 100 µM (inactive)	> 100 µM (inactive)	> 100 µM (inactive)	> 100 µM (inactive)	
COc1cc2c(c(OC)c1OC)-c1[nH]ncc1CC2	> 100 µM (inactive)	> 100 µM (inactive)	> 100 µM (inactive)	> 100 µM (inactive)	60.7 µM (inactive)	> 100 µM (inactive)	> 100 µM (inactive)	> 100 µM		> 100 µM (inactive)	> 100 µM (inactive)	> 100 µM (inactive)	> 100 µM (inactive)	> 100 µM (inactive)	> 100 µM (inactive)		> 100 µM (inactive)	> 100 µM (inactive)	> 100 µM (inactive)
O=C1O/C(=C(/c2ccc(Cl)cc2)c2nc3ccccc3[nH]2)C(O)=C1c1ccc(Cl)cc1	2.21 µM (inactive)	2.93 µM (inactive)	3.29 µM (inactive)	1.85 µM (inactive)	2.23 µM (inactive)	3.85 µM (inactive)	2.03 µM (inactive)		2.28 µM (inactive)	2 µM (inactive)	1.46 µM (inactive)	2.86 µM (inactive)	2.1 µM (inactive)	1.38 µM (inactive)	5.3 µM (inactive)	2.4 µM (inactive)	2.73 µM (inactive)	2.83 µM (inactive)	1.8 µM (inactive)
C/C(CC(=O)NCCc1ccccc1)=N\NS(=O)(=O)c1ccc(C)cc1	> 100 µM (inactive)		> 100 µM (inactive)	> 100 µM (inactive)		> 100 µM (inactive)	> 100 µM (inactive)		> 100 µM (inactive)	> 100 µM (inactive)	> 100 µM (inactive)	> 100 µM (inactive)	> 100 µM (inactive)	> 100 µM (inactive)	> 100 µM (inactive)		> 100 µM (inactive)	> 100 µM (inactive)	> 100 µM (inactive)
